Assay results reported in US8603947B2, “(4-haloalkyl-3-thiobenzoyl)cyclohexanediones and use thereof as herbicides” (Bayer Cropscience AG, priority 2010, dated 2013).

How the values were obtained:
Format in all cases: in vivo
Viola tricolor (VIOTR) [1] = test: Pre-emergence herbicidal action against weed plants; conditions: scored after 3 to 4 weeks
Source text: (§1) 1. Pre-emergence Herbicidal Action Against Weed Plants Seeds or rhizome sections of mono- and dicotyledonous weed plants are set out in pots of 9 to 13 cm in diameter, in sandy loam soil, and are covered with soil. The herbicides, formulated as emulsifiable concentrates or dusts, are applied to the surface of the covering earth in the form of aqueous dispersions or suspensions or emulsions, at a water application rate of 300 to 800 l/ha (converted). The pots are then maintained under glass under optimum conditions for the further cultivation of the plants. After 3 to 4 weeks under optimum growth conditions under glass, the trial plants are scored for the effect of the compounds according to the invention in comparison to compounds disclosed in the prior art. […] [table]

[2] = system: Pharbitis purpureum (PHBPU); test: as above; conditions: scored after 3 to 4 weeks
Source text: as §1

Setaria viridis (SETVI) [3] = test: Post-emergence herbicidal action against weed plants; conditions: dose 80 g a.c./ha, scored after 3 to 4 weeks, Comparison Table 11
Experimental: (§2) [table] 2. Post-emergence Herbicidal Action Against Weed Plants Seeds of monocotyledonous and dicotyledonous weed plants are set out in cardboard pots in sandy loam soil, covered with soil, and cultivated under glass under good growth conditions. Two to three weeks after sowing, the trial plants are treated at the three-leaf stage. The compounds according to the invention, formulated as wettable powders or as emulsifiable concentrates, are sprayed onto the surface of the green parts of the plants, at a water application rate of 600 to 800 l/ha (converted). After the trial plants have stood for 3 to 4 weeks under optimum growth conditions under glass, the action of the compounds according to the invention is scored in comparison to compounds disclosed in the prior art.

Viola tricolor (VIOTR) [4] = test: as above; conditions: dose 80 g a.c./ha, scored after 3 to 4 weeks, Comparison Table 11
Experimental: as §2

[5] = system: Pharbitis purpureum (PHBPU); test: as above; conditions: scored after 3 to 4 weeks
Experimental: as §2

[6] = system: Matricaria inodora (MATIN); test: Pre-emergence herbicidal action against weed plants; conditions: dose 320 g a.c./ha, scored after 3 to 4 weeks, Comparison Table 4
Source text: as §1

Avena fatua (AVEFA) = test: as above; conditions: dose 320 g a.c./ha, scored after 3 to 4 weeks, Comparison Table 4
Source text: as §1

Setaria viridis (SETVI) [7] = test: as above; conditions: dose 80 g a.c./ha, scored after 3 to 4 weeks, Comparison Table 5
Source text: as §1

[8] = system: Alopecurus myosuroides (ALOMY); test: Post-emergence herbicidal action against weed plants; conditions: scored after 3 to 4 weeks
Experimental: as §2

[9] = system: Amaranthus retroflexus (AMARE); test: as above; conditions: dose 80 g a.c./ha, scored after 3 to 4 weeks, Comparison Table 8
Experimental: as §2

[10] = system: Echinochloa crus galli (ECHCG); test: as above; conditions: dose 80 g a.c./ha, scored after 3 to 4 weeks
Experimental: as §2

[11] = system: Matricaria inodora (MATIN); test: as above; conditions: dose 80 g a.c./ha, scored after 3 to 4 weeks
Experimental: as §2

[12] = dose 80 g a.c./ha, Comparison Table 2
[13] = dose 80 g a.c./ha, Comparison Table 11
[14] = dose 320 g a.c./ha, Comparison Table 1
[15] = dose 320 g a.c./ha, Comparison Table 3
[16] = dose 320 g a.c./ha, Comparison Table 4
[17] = dose 80 g a.c./ha, Comparison Table 5
[18] = dose 80 g a.c./ha, Comparison Table 6
[19] = dose 80 g a.i./ha, Comparison Table 7
[20] = dose 80 g a.c./ha, Comparison Table 8
[21] = dose 80 g a.c./ha, Comparison Table 9
[22] = dose 80 g a.c./ha, Comparison Table 10

Compound: CCn1ncc(C(=O)c2ccc(C(F)(F)F)c([S+](C)[O-])c2C)c1O (stereo not drawn)
- Herbicidal action against VIOTR (Viola tricolor (VIOTR) [1]; [12]): 50%
- Herbicidal action against PHBPU [2, 12]: 0%

Compound: Cc1nn(C)c(O)c1C(=O)c1ccc(C(F)(F)F)c(S(C)(=O)=O)c1C
- Herbicidal action against SETVI (Setaria viridis (SETVI) [3]): 60%
- Herbicidal action against VIOTR (Viola tricolor (VIOTR) [4]): 80%
- Herbicidal action against PHBPU [5, 13]: 80%

Compound: Cc1c(C(=O)C2C(=O)C3CCC(C3)C2=O)ccc(C(F)(F)C(F)(F)F)c1[S+](C)[O-] (stereo not drawn) [drawing 13]
- Herbicidal action against VIOTR (Viola tricolor (VIOTR) [1]; [14]): 100%
- Herbicidal action against PHBPU [2, 14]: 90%

Compound: Cc1c(C(=O)c2cnn(C)c2O)ccc(C(F)(F)F)c1[S+](C)[O-] (stereo not drawn) [drawing 14]
- Herbicidal action against VIOTR (Viola tricolor (VIOTR) [1]; [14]): 90%
- Herbicidal action against PHBPU [2, 14]: 50%

Compound: Cc1c(C(=O)C2C(=O)C3CCC(C3)C2=O)ccc(C(F)(F)C(F)(F)F)c1[S+](C)[O-] (stereo not drawn) [drawing 15]
- Herbicidal action against VIOTR (Viola tricolor (VIOTR) [1]; [12]): 100%
- Herbicidal action against PHBPU [2, 12]: 80%

Compound: Cc1c(C(=O)C2C(=O)C3CCC(C3)C2=O)ccc(C(F)(F)C(F)(F)F)c1[S+](C)[O-] (stereo not drawn) [drawing 17]
- Herbicidal action against VIOTR (Viola tricolor (VIOTR) [1]; [15]): 100%
- Herbicidal action against PHBPU [2, 15]: 90%

Compound: Cc1nn(C)c(O)c1C(=O)c1ccc(C(F)(F)F)c([S+](C)[O-])c1C (stereo not drawn) [drawing 18]
- Herbicidal action against VIOTR (Viola tricolor (VIOTR) [1]; [15]): 40%
- Herbicidal action against PHBPU [2, 15]: 60%

Compound: Cc1c(C(=O)C2C(=O)C3CCC(C3)C2=O)ccc(C(F)(F)C(F)(F)F)c1S(C)(=O)=O (stereo not drawn) [drawing 19]
- Herbicidal action against MATIN [6]: 100%
- Herbicidal action against AVEFA (Avena fatua (AVEFA)): 80%
- Herbicidal action against PHBPU [2, 16]: 90%

Compound: CCn1ncc(C(=O)c2ccc(C(F)(F)F)c(S(C)(=O)=O)c2C)c1O [drawing 20]
- Herbicidal action against MATIN [6]: 90%
- Herbicidal action against AVEFA (Avena fatua (AVEFA)): 40%
- Herbicidal action against PHBPU [2, 16]: 50%

Compound: Cc1c(C(=O)C2C(=O)C3CCC(C3)C2=O)ccc(C(F)(F)C(F)(F)F)c1S(C)(=O)=O (stereo not drawn) [drawing 21]
- Herbicidal action against SETVI (Setaria viridis (SETVI) [7]): 100%
- Herbicidal action against VIOTR (Viola tricolor (VIOTR) [1]; [17]): 100%

Compound: Cc1c(C(=O)c2cnn(C)c2O)ccc(C(F)(F)F)c1S(C)(=O)=O [drawing 22]
- Herbicidal action against SETVI (Setaria viridis (SETVI) [7]): 60%
- Herbicidal action against VIOTR (Viola tricolor (VIOTR) [1]; [17]): 50%

Compound: Cc1c(C(=O)C2C(=O)C3CCC(C3)C2=O)ccc(C(F)(F)C(F)(F)F)c1[S+](C)[O-] (stereo not drawn) [drawing 23]
- Herbicidal action against ALOMY [8, 18]: 90%
- Herbicidal action against PHBPU [5, 18]: 100%

Compound: Cc1c(C(=O)c2cnn(C)c2O)ccc(C(F)(F)F)c1[S+](C)[O-] (stereo not drawn) [drawing 24]
- Herbicidal action against ALOMY [8, 18]: 60%
- Herbicidal action against PHBPU [5, 18]: 60%

Compound: Cc1c(C(=O)C2C(=O)C3CCC(C3)C2=O)ccc(C(F)(F)C(F)(F)F)c1[S+](C)[O-] (stereo not drawn) [drawing 25]
- Herbicidal action against ALOMY [8, 19]: 90%
- Herbicidal action against PHBPU [5, 19]: 100%

Compound: Cc1c(C(=O)c2cnn(C)c2O)ccc(C(F)(F)F)c1[S+](C)[O-] (stereo not drawn) [drawing 26]
- Herbicidal action against ALOMY [8, 19]: 60%
- Herbicidal action against PHBPU [5, 19]: 80%

Compound: Cc1c(C(=O)C2C(=O)C3CCC(C3)C2=O)ccc(C(F)(F)C(F)(F)F)c1[S+](C)[O-] (stereo not drawn) [drawing 27]
- Herbicidal action against AMARE [9]: 100%
- Herbicidal action against ALOMY [8, 20]: 90%
- Herbicidal action against PHBPU [5, 20]: 100%

Compound: Cc1nn(C)c(O)c1C(=O)c1ccc(C(F)(F)F)c([S+](C)[O-])c1C (stereo not drawn) [drawing 28]
- Herbicidal action against AMARE [9]: 50%
- Herbicidal action against ALOMY [8, 20]: 30%
- Herbicidal action against PHBPU [5, 20]: 50%

Compound: Cc1c(C(=O)C2C(=O)C3CCC(C3)C2=O)ccc(C(F)(F)C(F)(F)F)c1S(C)(=O)=O (stereo not drawn) [drawing 29]
- Herbicidal action against ECHCG ([10]; Comparison Table 9): 100%
- Herbicidal action against MATIN ([11]; Comparison Table 9): 100%
- Herbicidal action against PHBPU [5, 21]: 90%

Compound: Cc1c(C(=O)c2cnn(C)c2O)ccc(C(F)(F)F)c1S(C)(=O)=O [drawing 30]
- Herbicidal action against ECHCG ([10]; Comparison Table 9): 95%
- Herbicidal action against MATIN ([11]; Comparison Table 9): 55%
- Herbicidal action against PHBPU [5, 21]: 80%

Compound: Cc1c(C(=O)C2C(=O)C3CCC(C3)C2=O)ccc(C(F)(F)C(F)(F)F)c1S(C)(=O)=O (stereo not drawn) [drawing 31]
- Herbicidal action against ECHCG ([10]; Comparison Table 10): 100%
- Herbicidal action against MATIN ([11]; Comparison Table 10): 100%
- Herbicidal action against PHBPU [5, 22]: 90%

Compound: CCn1ncc(C(=O)c2ccc(C(F)(F)F)c(S(C)(=O)=O)c2C)c1O [drawing 32]
- Herbicidal action against ECHCG ([10]; Comparison Table 10): 90%
- Herbicidal action against MATIN ([11]; Comparison Table 10): 90%
- Herbicidal action against PHBPU [5, 22]: 40%

Compound: Cc1c(C(=O)C2C(=O)C3CCC(C3)C2=O)ccc(C(F)(F)C(F)(F)F)c1S(C)(=O)=O (stereo not drawn) [drawing 33]
- Herbicidal action against SETVI (Setaria viridis (SETVI) [3]): 100%
- Herbicidal action against VIOTR (Viola tricolor (VIOTR) [4]): 100%
- Herbicidal action against PHBPU [5, 13]: 90%
